# Source: patent publication US7868026B2, “Therapeutic compounds” (Pfizer Inc., priority 2005, dated 2011)
# pIC50, pKi: −log10 of the molar value. Read-outs that look alike come from different tables or passages of the source.
# How the values were obtained:
# Format in all cases: biochemical
# [1] = target: T1, CYP3A4 (Homo sapiens, UniProt P08684); experiment: Determination of IC50 against CYP3A4 by measurement of inhibition of midazolam metabolism (human liver microsomes, 1-hydroxymidazolam by LC-MS/MS); design: 0.1 mg/mL human liver microsomes; conditions: 2 μM midazolam, 0.1 mg/mL human liver microsomes
# Procedure, shortened: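 Human liver microsomes (0.1 mg/mL) incubated 8 min with 2 μM midazolam and 1 mM NADPH in 100 mM potassium phosphate, pH 7.4. 1-Hydroxymidazolam quantified by LC-MS/MS (MRM) as peak area ratio to internal standard against a metabolite standard curve.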
# [2] = target: T1, CYP3A4; experiment: Determination of compound Kiapp against recombinant CYP3A4 enzyme (BFC fluorescent substrate)
# Procedure, shortened: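 Kiapp derived from initial velocities over the first 5 min of BFC (5 uM) oxidation, using Morrison's tight-binding equation for non-partial and Szedlacsek's for partial inhibitors. Inhibitor first pre-incubated ≥30 min with CYP3A4 (5.5 or 8 nM, ±b5) in pH 7.0 phosphate/TCEP/2% DMF at room temperature; 200 uM NADPH initiated.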
# [3] = target: T1, CYP3A4; experiment: Determination of IC50 against CYP3A4 by measurement of inhibition of testosterone metabolism (human liver microsomes, 6-β-OH-testosterone by LC-MS/MS); design: 0.1 mg/mL human liver microsomes; conditions: read-out: IC50 (Testo.)
# Procedure, shortened: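 6-β-OH-testosterone formation was read by LC-MS/MS (MRM, internal standard, standard curve) after eight minutes. Reaction contained testosterone 25 μM, NADPH 1 mM and microsomal protein 0.1 mg/mL in pH 7.4 potassium phosphate (100 mM).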
# [4] = Baculo. enzyme preparation, read-out: Kiapp (BFC, Baculo.)
# [5] = Super. enzyme preparation, read-out: Kiapp (BFC, Super.)
# T1 sequence (P08684 whole entry): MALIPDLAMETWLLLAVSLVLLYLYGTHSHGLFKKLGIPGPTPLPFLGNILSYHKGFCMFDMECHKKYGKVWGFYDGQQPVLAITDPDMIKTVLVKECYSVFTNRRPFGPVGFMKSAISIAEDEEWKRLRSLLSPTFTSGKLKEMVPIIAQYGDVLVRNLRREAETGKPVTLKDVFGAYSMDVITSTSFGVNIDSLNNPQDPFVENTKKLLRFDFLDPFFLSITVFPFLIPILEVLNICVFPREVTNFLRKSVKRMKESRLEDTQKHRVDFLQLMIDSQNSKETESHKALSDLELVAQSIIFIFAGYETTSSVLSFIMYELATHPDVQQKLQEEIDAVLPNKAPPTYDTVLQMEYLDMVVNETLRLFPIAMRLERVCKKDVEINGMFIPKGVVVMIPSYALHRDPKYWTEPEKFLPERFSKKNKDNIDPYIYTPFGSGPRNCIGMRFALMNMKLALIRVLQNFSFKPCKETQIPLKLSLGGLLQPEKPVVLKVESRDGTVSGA
SMILES,pIC50 [1],"pKi [2, 4]","pKi [2, 5]",pIC50 [3]
"CCCCCNC(=O)c1ccccc1S(=O)(=O)Nc1cccnc1 [Example 61, N-pentyl-2-[(pyridin-3-ylamino)sulfonyl]benzamide]",7.57,6.88,8.11,7.52
"O=C(c1ccccc1S(=O)(=O)Nc1cccnc1)N1CCN(c2ccccn2)CC1 [Example 62, N-pyridin-3-yl-2-[(4-pyridin-2-ylpiperazin-1-yl)carbonyl]benzenesulfonamide]",6.74,< 6.00,7.08,6.68
"CCCCNC(=O)c1ccccc1S(=O)(=O)Nc1cccnc1 [Example 63, N-butyl-2-[(pyridin-3-ylamino)sulfonyl]benzamide]",7.07,6.35,7.37,7.08
"O=C(NCC1CCCC1)c1ccccc1S(=O)(=O)Nc1cccnc1 [Example 64, N-(cyclopentylmethyl)-2-[(pyridin-3-ylamino)sulfonyl]benzamide]",7.52,6.72,7.89,7.50
"O=C(NC1CCC1)c1ccccc1S(=O)(=O)Nc1cccnc1 [Example 65, N-cyclobutyl-2-[(pyridin-3-ylamino)sulfonyl]benzamide]",6.60,6.04,–,6.67
"O=C(NCCc1ccccn1)c1ccccc1S(=O)(=O)Nc1cccnc1 [Example 66, 2-[(pyridin-3-ylamino)sulfonyl]-N-(2-pyridin-2-ylethyl)benzamide]",6.84,< 6.00,6.68,6.52
"O=C(c1ccccc1S(=O)(=O)Nc1cccnc1)N1CCCCC1 [Example 67, 2-(piperidin-1-ylcarbonyl)-N-pyridin-3-ylbenzenesulfonamide]",6.96,6.07,7.21,6.61
"CN(CCc1ccccc1)C(=O)c1ccccc1S(=O)(=O)Nc1cccnc1 [Example 68, N-methyl-N-(2-phenylethyl)-2-[(pyridin-3-ylamino)sulfonyl]benzamide]",7.77,6.94,–,7.44
"O=C(NCCCc1ccccn1)c1ccccc1S(=O)(=O)Nc1cccnc1 [Example 69, 2-[(pyridin-3-ylamino)sulfonyl]-N-(3-pyridin-2-ylpropyl)benzamide]",6.98,< 6.00,–,6.75
"CCOc1ccccc1CNC(=O)c1ccccc1S(=O)(=O)Nc1cccnc1 [Example 72, N-(2-ethoxybenzyl)-2-[(pyridin-3-ylamino)sulfonyl]benzamide]",7.57,6.79,7.89,> 8.52
"Cc1cccc(CCNC(=O)c2ccccc2S(=O)(=O)Nc2cccnc2)c1 [Example 76, N-[2-(3-methylphenyl)ethyl]-2-[(pyridin-3-ylamino)sulfonyl]benzamide]",7.62,7.12,8.03,7.54
"O=C(NCCc1ccccc1)c1ccccc1S(=O)(=O)Nc1cccnc1 [Example 77, N-(2-phenylethyl)-2-[(pyridin-3-ylamino)sulfonyl]benzamide]",7.64,6.88,8.25,6.72
"CCN(Cc1ccccc1)C(=O)c1ccccc1S(=O)(=O)Nc1cccnc1 [Example 78, N-benzyl-N-ethyl-2-[(pyridin-3-ylamino)sulfonyl]benzamide]",7.66,6.80,7.86,< 6.12
"CNC(=O)c1ccc(CNC(=O)c2ccccc2S(=O)(=O)Nc2cccnc2)cc1 [Example 81, N-{4-[(methylamino)carbonyl]benzyl}-2-[(pyridin-3-ylamino)sulfonyl]benzamide]",6.30,< 6.00,6.56,> 8.52
"O=C(NCc1ccc2c(c1)CCO2)c1ccccc1S(=O)(=O)Nc1cccnc1 [Example 82, N-(2,3-dihydro-1-benzofuran-5-ylmethyl)-2-[(pyridin-3-ylamino)sulfonyl]benzamide]",7.55,6.13,7.68,7.60
"O=C(c1ccccc1S(=O)(=O)Nc1cccnc1)N1CCc2ccccc2C1 [Example 83, 2-(3,4-dihydroisoquinolin-2(1H)-ylcarbonyl)-N-pyridin-3-ylbenzenesulfonamide]",7.46,6.90,7.89,7.55
"CN(C)Cc1ccc(CNC(=O)c2ccccc2S(=O)(=O)Nc2cccnc2)cc1 [Example 84, N-{4-[(dimethylamino)methyl]benzyl}-2-[(pyridin-3-ylamino)sulfonyl]benzamide]",< 6.12,< 6.00,6.33,7.55
"CC(C)(O)c1ccc(CNC(=O)c2ccccc2S(=O)(=O)Nc2cccnc2)cc1 [Example 86, N-[4-(1-hydroxy-1-methylethyl)benzyl]-2-[(pyridin-3-ylamino)sulfonyl]benzamide]",6.93,< 6.00,6.68,7.57

# The remaining lines, values ahead:
pIC50 [1],"pKi [2, 4]","pKi [2, 5]",pIC50 [3],SMILES
7.54,6.61,8.29,> 8.52,"O=C(NCc1cccc(OC(F)F)c1)c1ccccc1S(=O)(=O)Nc1cccnc1 [Example 71, N-[3-(difluoromethoxy)benzyl]-2-[(pyridin-3-ylamino)sulfonyl]benzamide]"
7.42,6.91,7.97,> 8.52,"CN(Cc1ccccc1F)C(=O)c1ccccc1S(=O)(=O)Nc1cccnc1 [Example 73, N-(2-fluorobenzyl)-N-methyl-2-[(pyridin-3-ylamino)sulfonyl]benzamide]"
7.64,6.76,8.32,> 8.52,"Cc1ccccc1CNC(=O)c1ccccc1S(=O)(=O)Nc1cccnc1 [Example 74, N-(2-methylbenzyl)-2-[(pyridin-3-ylamino)sulfonyl]benzamide]"
7.80,7.37,8.62,7.89,"Cc1ccccc1CCNC(=O)c1ccccc1S(=O)(=O)Nc1cccnc1 [Example 75, N-[2-(2-methylphenyl)ethyl]-2-[(pyridin-3-ylamino)sulfonyl]benzamide]"
7.52,6.84,7.58,6.75,"Cc1ccc(CNC(=O)c2ccccc2S(=O)(=O)Nc2cccnc2)cc1 [Example 79, N-(4-methylbenzyl)-2-[(pyridin-3-ylamino)sulfonyl]benzamide]"
7.60,6.69,8.39,7.15,"Cc1cccc(CNC(=O)c2ccccc2S(=O)(=O)Nc2cccnc2)c1 [Example 80, N-(3-methylbenzyl)-2-[(pyridin-3-ylamino)sulfonyl]benzamide]"
7.80,6.98,7.92,7.39,"O=C(NCc1ccc(F)c(F)c1)c1ccccc1S(=O)(=O)Nc1cccnc1 [Example 85, N-(3,4-difluorobenzyl)-2-[(pyridin-3-ylamino)sulfonyl]benzamide]"
7.52,7.05,8.20,8.00,"O=C(NCc1cccc(F)c1F)c1ccccc1S(=O)(=O)Nc1cccnc1 [Example 87, N-(2,3-difluorobenzyl)-2-[(pyridin-3-ylamino)sulfonyl]benzamide]"
